Data on five molecules can be found in ChEMBL document CHEMBL1201862, “PubChem BioAssay data set” (2004).

Each structure is given as a SMILES string.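 Exposure lasted 48 hours, with cells grown in 96-well plates and compounds tested at five concentrations. The concentration for 50% growth inhibition is given as GI50.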 The source made the active and inactive calls. Rule as the data show it: active = GI50 up to about 1.1 µM and inactive = higher.

Some test systems named below: CCRF-CEM; NCI/ADR-RES; OVCAR-3; SF-295; HOP-62; CAKI-1; XF498; SNB-78; SK-MEL-5; UO-31; Malme-3M; DLD-1; DMS-114; NCI-H522; PC-3; TK-10; SR; MDA-MB-231; ACHN; MDA-N.
Experiment in all cases: NCI anticancer screen, dose series, 48 h

Regarding `COc1ccc(O)c(C#N)c1C#N.COc1ccc(OC)c(C#N)c1C#N`, the GI50 in the experiment on CCRF-CEM, in the experiment on NCI/ADR-RES, with OVCAR-3, in the experiment on SF-295, in the experiment on HOP-62 and in the experiment on CAKI-1 was > 100 µM (inactive) each time. Moreover, the GI50 in the experiment with XF498, with SNB-78, in the experiment on SK-MEL-5, in the experiment with UO-31, in the experiment with Malme-3M and in the experiment on DLD-1 was > 100 µM (inactive) throughout.

As for `CNC(=O)OCc1c(CO)nc(SC)n1C`, the GI50 in the experiment with CCRF-CEM, in the experiment with NCI/ADR-RES, with OVCAR-3, with SF-295, in the experiment on HOP-62 and with DMS-114 was > 100 µM (inactive) each time. Moreover, the GI50 in the experiment on CAKI-1, with XF498, in the experiment on SK-MEL-5, with UO-31, in the experiment with Malme-3M and with DLD-1 was > 100 µM (inactive) in each case. Further, the GI50 with NCI-H522 is > 100 µM (inactive).

Turning to `O=C(O)c1ccccc1/N=C/c1ccc(N(CCCl)CCCl)cc1`, the GI50 in the experiment with CCRF-CEM was > 80.7 µM (inactive); in the experiment with NCI/ADR-RES, > 100 µM (inactive); with OVCAR-3 it was > 100 µM (inactive); with SF-295, > 100 µM (inactive); in the experiment with HOP-62, 1.31 µM (inactive); in the experiment on CAKI-1 it was 9.75 µM (inactive). Also, the GI50 was 0.01 µM (active) in the experiment on XF498; > 82.8 µM (inactive) with SNB-78; > 100 µM (inactive) with SK-MEL-5; > 65.2 µM (inactive) with UO-31; > 100 µM (inactive) with Malme-3M; > 100 µM (inactive) in the experiment with DLD-1. Moreover, the GI50 with NCI-H522 was > 100 µM (inactive).

For the molecule `CCOC(=O)Cn1c(=O)ccn(COCCO)c1=O`, the GI50 in the experiment on PC-3 was > 100 µM (inactive); with CCRF-CEM, > 100 µM (inactive); with NCI/ADR-RES, > 100 µM (inactive); in the experiment on OVCAR-3 it was > 100 µM (inactive); in the experiment on TK-10, > 100 µM (inactive); in the experiment on SR, > 10 µM (inactive). Besides, the GI50 with HOP-62, in the experiment on MDA-MB-231, with ACHN, in the experiment with CAKI-1, in the experiment with SK-MEL-5 and in the experiment on UO-31 was > 100 µM (inactive) throughout. Further, the GI50 in the experiment with Malme-3M, with NCI-H522 and in the experiment on MDA-N was > 100 µM (inactive) throughout.

For the molecule `CC(C)=CC1C(C(=O)O)C1(C)C` (stereo unspecified) [CHRYSANTHEMIC ACID], the GI50 in the experiment with CCRF-CEM, in the experiment with NCI/ADR-RES, in the experiment on OVCAR-3, with SF-295, in the experiment with HOP-62 and in the experiment with DMS-114 was > 750 µM (inactive) throughout. Also, the GI50 in the experiment on CAKI-1 is 643 µM (inactive); with XF498, 50.6 µM (inactive); in the experiment with SK-MEL-5 it was > 750 µM (inactive); in the experiment with UO-31, > 750 µM (inactive); in the experiment on Malme-3M it was 746 µM (inactive); in the experiment on DLD-1, > 750 µM (inactive). The GI50 in the experiment with NCI-H522 was > 750 µM (inactive).
